In US20130245081A1, “Compositions and Methods for Treating Amyotrophic Lateral Sclerosis” (priority 2009, published 2013):

Experiment: clinical
Conditions: for AUC(0-t) / AUC(0-inf) / Cmax / Tmax / Vd/F / half-life / CL renal: both, human, oral; for AUC(0-t) / AUC(0-inf) / Cmax / Tmax / Vd/F / half-life: plasma; for AUC(0-t): AUC0-t; for AUC(0-inf): AUCinf; for Vd/F: Vz/F; for CL renal: urine and plasma, CLr
Source text: A total of 54 subjects (30 subjects in Study CL001 and 24 subjects in Study CL002) were enrolled. Healthy, non-smoking, male and female subjects 30 to 60 years of age, inclusive, with normal or clinically acceptable physical examination and electrocardiogram (ECG) findings, systolic (90 to 140 mmHg) and diastolic (50 to 90 mmHg) blood pressure, and resting heart rate (50 to 100 bpm) who were willing to provide signed, written informed consent were eligible for enrollment. Female volunteers had to be of non-childbearing potential with negative pregnancy test results at screening and clinic check-in. Subjects with any history of neurodegenerative illnesses were excluded. The use of over-the-counter medications within 7 days prior to enrollment or prescription medications within 12 weeks prior to enrollment was prohibited.
In the first study, subjects were enrolled in 3 successive double-blind, placebo-controlled panels of 8 subjects (n=6 active, n=2 placebo per panel).
Matching placebo capsules contained equivalent weights of microcrystalline cellulose. Capsules were administered orally with water. […] Subjects in the fasted cohorts were required to fast overnight for a minimum of 10 hours before dose administration. Subjects in the food cohort were required to fast overnight for a minimum of 10 hours before dose administration, with exception of the high fat/high calorie meal that was administered 30 minutes prior to drug administration. […] All available safety data were reviewed under blinded conditions to monitor for serious safety or tolerability events prior to proceeding with dose escalations.
Blood samples were collected into a 10 mL dipotassium ethylenediaminetetraacetic acid (K2-EDTA) Vacutainer® via an indwelling peripheral intravenous cannula or by direct venipuncture. Within 15 minutes of collection, the samples were centrifuged at 3000 rpm for 10 minutes at 4° C. After centrifugation, the plasma was divided into 2 aliquots of at least 1.5 mL each, placed into polypropylene containers, frozen, and stored at −20° C. until they were shipped for analysis.
Urine collected in each interval was well mixed, the pH was recorded, the total volume (or the weight and specific gravity) was recorded, and 2 aliquots of 20 mL each were collected into polypropylene containers and stored at −20° C. until they were shipped for analysis. All plasma and urine sample were shipped frozen on dry ice in 2 separate shipments per group (1 set of aliquots per shipment) to Eurofins AvTech Laboratories Inc. (Kalamazoo, Mich.) for bioanalytical analysis.
Plasma and urine concentrations were measured using validated liquid chromatography/mass spectrometry/mass spectrometry (LC/MS/MS) methods. […] The analytical procedure for analysis of plasma samples used a 100 μL aliquot of K2EDTA human plasma. The plasma sample was spiked with 20 μL of working internal standard solution and 20 μL of type 1 water for subject samples and QCs and 20 μL of the appropriate intermediate standard solution for standards. One hundred microliters ([…]) of 50% ammonium hydroxide solution was added to the sample followed by vortex mixing. One milliliter (1 mL) of tertbutyl methyl ether was then added and the sample was vortexed to extract the analyte and internal standard into the organic layer, followed by separation using flash freezing. The organic layer was decanted, evaporated to dryness, and the sample was reconstituted with 0.5 mL of reconstitution solution (0.1% ammonium hydroxide in 50:50 methanol; type 1 water (v/v/v)). A 10 μL aliquot of this reconstituted sample was injected into an LC/MS/MS system for analysis. […] The analytical procedure for analysis of urine samples was essentially similar to the plasma procedure.

CCCN[C@@H]1CCc2nc(N)sc2C1 [dexpramipexole, (6R)-2-amino-4,5,6,7-tetrahydro-6-(propylamino)benzothiazole]
eliminated in urine as unchanged parent drug (both Phase 1 studies): 84-90 % of dose
AUC(0-t) (50 mg, single 50 mg, fasted): 989 ± 295 ng·h/mL
AUC(0-inf) (50 mg, single 50 mg, fasted): 1250 ± 347 ng·h/mL
Cmax (50 mg, single 50 mg, fasted): 125 ± 22 ng/mL
Tmax (50 mg, Tmax (median), single 50 mg, fasted): 2.04 h
Vd/F (50 mg, single 50 mg, fasted): 294 ± 46.2 L
AUC(0-t) (150 mg, single 150 mg, fasted): 3360 ± 780 ng·h/mL
AUC(0-t) (150 mg, single 150 mg, fed): 3080 ± 934 ng·h/mL
AUC(0-inf) (150 mg, single 150 mg, fasted): 3780 ± 1010 ng·h/mL
AUC(0-inf) (150 mg, single 150 mg, fed): 3380 ± 957 ng·h/mL
Cmax (150 mg, single 150 mg, fasted): 360 ± 60.4 ng/mL
Cmax (150 mg, single 150 mg, fed): 315 ± 61.6 ng/mL
Tmax (150 mg, Tmax (median), single 150 mg, fasted): 2.04 h
Tmax (150 mg, Tmax (median), single 150 mg, fed): 2.58 h
Vd/F (150 mg, single 150 mg, fasted): 311 ± 68.4 L
Vd/F (150 mg, single 150 mg, fed): 308 ± 55.9 L
half-life (150 mg, t1/2, single 150 mg, fed): 6.33 ± 1.49 h
AUC(0-t) (300 mg, single 300 mg, fasted): 8340 ± 3200 ng·h/mL
AUC(0-inf) (300 mg, single 300 mg, fasted): 8620 ± 3260 ng·h/mL
Cmax (300 mg, single 300 mg, fasted): 781 ± 158 ng/mL
Tmax (300 mg, Tmax (median), single 300 mg, fasted): 1.98 h
Vd/F (300 mg, single 300 mg, fasted): 258 ± 73.5 L
half-life (300 mg, elimination t1/2, single 50, 150, 300 mg, fasted): 6.4 to 6.96 h
Tmax (Tmax, range over both Phase 1 studies, single and multiple doses): 1.75 to 2.58 h
half-life (t1/2, range over both Phase 1 studies, fasted conditions): 6.4 to 8.05 h
CL renal (50 mg, single 50 mg, fasted): 628 ± 149 mL/min
CL renal (150 mg, single 150 mg, fasted): 385 mL/min
CL renal (150 mg, single 150 mg, fed): 559 ± 140 mL/min
CL renal (300 mg, single 300 mg, fasted): 441 ± 159 mL/min
time of maximum concentrations after dosing (oral administration): 2 h
CL/F (single 50 mg, fasted): 527 ± 135 mL/min
Fe (single 50 mg, fasted): 94.7 ± 13.9 % dose
Ue (single 50 mg, fasted): 35.3 ± 5.19 mg
λz (single 50 mg, fasted): 0.1064 ± 0.0171 h⁻¹
CL/F (single 150 mg, fasted): 524 ± 146 mL/min
Fe (single 150 mg, fasted): 66.9 ± 44.8 % dose
Ue (single 150 mg, fasted): 74.8 ± 50.17 mg
λz (single 150 mg, fasted): 0.1001 ± 0.0087 h⁻¹
CL/F (single 150 mg, fed): 581 ± 127 mL/min
Fe (single 150 mg, fed): 86.6 ± 4.21 % dose
Ue (single 150 mg, fed): 96.9 ± 4.71 mg
λz (single 150 mg, fed): 0.1144 ± 0.0259 h⁻¹
CL/F (single 300 mg, fasted): 492 ± 194 mL/min
Fe (single 300 mg, fasted): 88.3 ± 12.5 % dose
Ue (single 300 mg, fasted): 198 ± 28.0 mg
λz (single 300 mg, fasted): 0.1151 ± 0.0309 h⁻¹
dose recovered as unchanged parent drug in the urine (single doses): Approximately 90%
